Laboratory results as given in patent US11419878B2, “Medicine obtained by combining FXR agonist and ARB” (Intercept Pharmaceuticals, Inc., priority 2016, dated 2022).

System: human hepatic stellate cells (HHSC)
Experiment: HHSC proliferation inhibition, WST-1 cell proliferation assay
Format: cell-based
Conditions: AT-II 10^-6M + LPS 10^-5M; ARB 10^-6M, obeticholic acid 5×10^-6M; 24 hours; WST-1 absorbance
Procedure: The various combined effects of obeticholic acid and three types of ARBs (losartan, valsartan, and candesartan) were confirmed in an in vitro cell system experiment. Specifically, using human hepatic stellate cells (HHSC), which are implicated in the main mechanism of progression of hepatic fibrosis in NASH, the effects of administration of obeticholic acid in combination with the three ARBs of inhibiting HHSC proliferation capacity and the expression of fibrosis markers were evaluated according to the following method. Human hepatic stellate cells (HHSC) (also referred to as human hepatic star cells) Obeticholic acid (obtained from Intercept Pharmaceuticals, Inc. via Sumitomo Dainippon Pharma Co., Ltd.) was used as an FXR agonist, and commercial losartan (potassium salt of losartan; referred to in this working example simply as “losartan”) and valsartan and candesartan ([…] of candesartan; referred to in this working example simply as “candesartan”) were used as ARBs. […] The direct action of inhibiting HIISC proliferation capacity was evaluated by means of a cell proliferation assay using WST-1 reagent. […] AT-II (10^-6M) Positive control group L […]): LPS 10^-5M) Positive control group AL ([…]): (10^-6M)+LPS (10^-5M) Obeticholic acid administration (G3): AT-II (10^-6M)+LPS (10^-5M)+obeticholic acid (5×10^-6M) ARB administration (G4): AT-II (10^-6M)+LPS (10^-5M)+ARB (10^-6M) Obeticholic acid+ARB combined administration (G5): AT-II (10^-6M)+LPS (10^-5M)+obeticholic acid (5×10^-6M)+ARB (10^-6M) 3) After the cells of the above groups (G1, G2A, G2L, G2AL, G3, G4, G5) were cultured for 24 hours, respective WST-1 cell proliferation assays were conducted, and the inhibitory effect of the pharmaceutical agents on cell proliferation was evaluated. The inhibitory effect of valsartan and candesartan on HHSC proliferation was also evaluated according to steps 1)-3) above. […]

Q: With `CCCCc1nc(Cl)c(CO)n1Cc1ccc(-c2ccccc2-c2nn[nH]n2)cc1` [losartan] as the compound, how does the “promotion of activated HHSC proliferation by AT-II and LPS, compared to positive control group AL (G2AL)” value read?
A: Its value is “statistically significant inhibition”.
